This note sets out measurements from PubChem BioAssay AID228 (DTP/NCI, 2004).

The experiment concerns BDF1 mice, Friend leukemia sc, tumor weight T/C. Description: NCI In Vivo Anticancer Drug Screen. Data for tumor model Friend Virus Leukemia (Solid) (subcutaneous) in B6D2F1 (BDF1) mice. The settings on record: endpoint: mean tumor weight, schedule: Q01DX011 (ip), higher = larger tumour. How it is done: The antitumor activity of compounds was measured in mice bearing transplantable tumors. Survival or tumor size were measured and the results are expressed as the measurement made in the treated group (T) divided by the measurement made in the vehicle treated control group (C). The tumor model used in this assay is Friend Virus Leukemia (Solid) (subcutaneous) in B6D2F1 (BDF1) mice

Where [1] appears, read: dose: 15.0 mg/kg/injection, vehicle: carboxymethylcellulose (CMC).
Where [2] appears, read: dose: 12.5 mg/kg/injection, vehicle: carboxymethylcellulose (CMC).
[3] abbreviates: dose: 25.0 mg/kg/injection, vehicle: carboxymethylcellulose (CMC).
Where [4] appears, read: dose: 43.0 mg/kg/injection, vehicle: carboxymethylcellulose (CMC).
The mark [5] stands for this setting: dose: 50.0 mg/kg/injection, vehicle: carboxymethylcellulose (CMC).
Where [6] appears, read: dose: 100.0 mg/kg/injection, vehicle: carboxymethylcellulose (CMC).
Where [7] appears, read: dose: 1.0 mg/kg/injection, vehicle: carboxymethylcellulose (CMC).
Where [8] appears, read: dose: 8.0 mg/kg/injection, vehicle: carboxymethylcellulose (CMC).
Where [9] appears, read: dose: 16.0 mg/kg/injection, vehicle: carboxymethylcellulose (CMC).

“And” between values parts separate entries of the source, which are not always exact repeats. Identical values can stand only once. Results filed as inconclusive are left out.

As to `Cn1c(O)c(N=NC(N)=S)c2ccccc21`, the T/C (dose: 15.0 mg/kg/injection, vehicle: saline) was 110 % of control; the T/C (dose: 30.0 mg/kg/injection, vehicle: saline) was 105 % of control; the T/C (dose: 60.0 mg/kg/injection, vehicle: saline) is 108 % of control; the T/C (dose: 120.0 mg/kg/injection, vehicle: saline) is 75 % of control; the T/C (dose: 240.0 mg/kg/injection, vehicle: saline) was 94 % of control.
As for `Clc1ccc(N2CCN(CCCN3CCN(c4cccc(Cl)c4)CC3)CC2)cc1`, the T/C is, setting by setting: (dose: 7.5 mg/kg/injection, vehicle: carboxymethylcellulose (CMC)) 93 % of control; under setting [1], 85 % of control; (dose: 30.0 mg/kg/injection, vehicle: carboxymethylcellulose (CMC)) 62 % of control.
With `O=S(=O)(O)c1cccnc1`, the T/C is 86 % of control and 101 % of control (dose: 39.0 mg/kg/injection, vehicle: carboxymethylcellulose (CMC)); 98 % of control and 110 % of control (dose: 157.0 mg/kg/injection, vehicle: carboxymethylcellulose (CMC)).
For the molecule `CC(C)NCC(=O)c1ccc(O)c(O)c1`, the T/C is, setting by setting: (dose: 50.0 mg/kg/injection, vehicle: saline) 95 % of control; (dose: 100.0 mg/kg/injection, vehicle: saline) 110 % of control; (dose: 200.0 mg/kg/injection, vehicle: saline) 102 % of control.
Regarding `CNC=O`, the T/C reads like this: under setting [2], 80 % of control; under setting [3], 57 % of control and 38 % of control; (dose: 41.62 mg/kg/injection, vehicle: carboxymethylcellulose (CMC)) 124 % of control; (dose: 42.0 mg/kg/injection, vehicle: carboxymethylcellulose (CMC)) 92 % of control; under setting [4], 79 % of control; under setting [5], 43 % of control. Besides, the T/C reads like this: (dose: 83.25 mg/kg/injection, vehicle: carboxymethylcellulose (CMC)) 92 % of control; (dose: 85.0 mg/kg/injection, vehicle: carboxymethylcellulose (CMC)) 91 % of control; (dose: 86.0 mg/kg/injection, vehicle: carboxymethylcellulose (CMC)) 109 % of control; under setting [6], 53 % of control; (dose: 176.5 mg/kg/injection, vehicle: carboxymethylcellulose (CMC)) 91 % of control; (dose: 200.0 mg/kg/injection, vehicle: carboxymethylcellulose (CMC)) 39 % of control. In addition, the T/C is, setting by setting: (dose: 250.0 mg/kg/injection, vehicle: carboxymethylcellulose (CMC)) 84 % of control; (dose: 275.0 mg/kg/injection, vehicle: carboxymethylcellulose (CMC)) 57 % of control; (dose: 343.0 mg/kg/injection, vehicle: carboxymethylcellulose (CMC)) 41 % of control.
For `CCn1cnc2c(SC)nc(N)nc21`, the T/C under setting [3] is 83 % of control, the T/C under setting [5] was 73 % of control and the T/C under setting [6] was 23 % of control.
For `Cc1ccc(N=NN(C)C)cc1`, in that order: 110 % of control, 90 % of control and 28 % of control.
In the case of `C=CCNc1ccc(C)cc1`, the T/C reads like this: (dose: 22.0 mg/kg/injection, vehicle: carboxymethylcellulose (CMC)) 60 % of control; (dose: 45.0 mg/kg/injection, vehicle: carboxymethylcellulose (CMC)) 58 % of control; (dose: 90.0 mg/kg/injection, vehicle: carboxymethylcellulose (CMC)) 35 % of control.
Turning to `O=C1NC2C(NC(=O)N2Cl)N1Cl` (centres undefined), the T/C reads like this: (dose: 20.0 mg/kg/injection, vehicle: saline) 105 % of control; (dose: 40.0 mg/kg/injection, vehicle: saline) 103 % of control.
Take `C[n+]1c(-c2ccccc2)c2cc(N)ccc2c2ccccc21`: the T/C (dose: 4.4 mg/kg/injection, vehicle: carboxymethylcellulose (CMC)) was 103 % of control; the T/C (dose: 6.6 mg/kg/injection, vehicle: carboxymethylcellulose (CMC)) was 117 % of control; the T/C (dose: 10.0 mg/kg/injection, vehicle: carboxymethylcellulose (CMC)) is 53 % of control; the T/C under setting [1] is 89 % of control.
With `CCc1ccccc1N1CCN(C(=O)c2cc(OC)c(OC)c(OC)c2)CC1`, the T/C is 64 % of control (dose: 0.25 mg/kg/injection, vehicle: carboxymethylcellulose (CMC)); 73 % of control (dose: 0.5 mg/kg/injection, vehicle: carboxymethylcellulose (CMC)); 64 % of control under setting [7]; 53 % of control and 35 % of control (dose: 2.0 mg/kg/injection, vehicle: carboxymethylcellulose (CMC)); 67 % of control (dose: 4.0 mg/kg/injection, vehicle: carboxymethylcellulose (CMC)); 40 % of control under setting [8]. The T/C is 42 % of control under setting [9] and 11 % of control (dose: 31.0 mg/kg/injection, vehicle: other).
For the molecule `CCN(CC)CCNc1ccc(C)c2sc3ccccc3c(=O)c12`, the T/C was 184 % of control under setting [7]; 199 % of control (dose: 6.0 mg/kg/injection, vehicle: carboxymethylcellulose (CMC)); 37 % of control (dose: 6.25 mg/kg/injection, vehicle: carboxymethylcellulose (CMC)); 174 % of control under setting [8]; 199 % of control (dose: 8.1 mg/kg/injection, vehicle: carboxymethylcellulose (CMC)); 35 % of control under setting [2]. In addition, the T/C is, setting by setting: under setting [9], 274 % of control; (dose: 16.2 mg/kg/injection, vehicle: carboxymethylcellulose (CMC)) 179 % of control; (dose: 26.0 mg/kg/injection, vehicle: carboxymethylcellulose (CMC)) 111 % of control; (dose: 32.0 mg/kg/injection, vehicle: carboxymethylcellulose (CMC)) 66 % of control; (dose: 33.0 mg/kg/injection, vehicle: carboxymethylcellulose (CMC)) 69 % of control; under setting [4], 72 % of control. In addition, the T/C by setting is: under setting [5], 31 % of control and 32 % of control; (dose: 75.0 mg/kg/injection, vehicle: carboxymethylcellulose (CMC)) 3 % of control and 7 % of control.
As for `NC(=O)n1cccn1`, the T/C is 107 % of control (dose: 25.0 mg/kg/injection, vehicle: other); 120 % of control (dose: 50.0 mg/kg/injection, vehicle: other); 78 % of control (dose: 100.0 mg/kg/injection, vehicle: other); 13 % of control (dose: 150.0 mg/kg/injection, vehicle: other); 28 % of control (dose: 200.0 mg/kg/injection, vehicle: other).
As for `C[C@]12CC[C@H](OC3OC(CO)C(O)C(O)C3O)C[C@H]1CC[C@@H]1[C@@H]2CC[C@]2(C)[C@@H](C3=CCOC3=O)CC[C@]12O` (some centres undefined), the T/C (dose: 0.1 mg/kg/injection, vehicle: carboxymethylcellulose (CMC)) was 69 % of control.
`Nc1ccc(OC(=O)Oc2ccc(N)cc2)cc1`: the T/C is 105 % of control (dose: 31.0 mg/kg/injection, vehicle: carboxymethylcellulose (CMC)); 68 % of control (dose: 62.0 mg/kg/injection, vehicle: carboxymethylcellulose (CMC)); 28 % of control (dose: 125.0 mg/kg/injection, vehicle: carboxymethylcellulose (CMC)).
